Measurements: patent US9624161B2 (priority 2009, dated 2017)

Tests used:
[1] = tested on: intact and orchiectomized (ORX) male Sprague-Dawley rats; test: Suppression of LH and testosterone in intact and ORX rats, 14-day subcutaneous dosing; assay type: in vivo, rat; conditions: for Serum testosterone: LLOQ 0.08 ng/mL
Protocol: An in vivo dose-response study was conducted to evaluate the effect of Compound IV on LH suppression in intact and orchiectomized (ORX) male rats.
Male Sprague-Dawley rats weighing approximately 200 g were maintained on a 12-h light/dark cycle with food (2016 Teklad Global 16% Protein Rodent Diet, Harlan, Madison, Wis.) and water available ad libitum. The animal protocol was reviewed and approved by the Institutional Animal Care and Use Committee of the University of Tennessee.
The test article for this study was weighed and dissolved in 10% DMSO (Fisher) diluted with PEG 300 (Acros Organics, NJ) to prepare the appropriate dose formulations. For this study, sixty (60) male Sprague-Dawley rats were randomized by body weight, and assigned to one of the twelve treatment groups (n=5 animals/group). The animals were housed in groups of 2 to 3 animals per cage. Control groups (intact and orchidectomized (ORX)) were administered vehicle daily. […]
After a 14-day dosing regimen, the animals were sacrificed under anesthesia (ketamine/xylazine, 87:13 mg/kg) and body weights were recorded. In addition, ventral prostate, seminal vesicles, and levator ani muscle were removed, cleaned of extraneous tissue, and individually weighed. Organ weight were normalized to body weight and expressed as a percentage of intact control. Blood was collected from the abdominal aorta under isoflurane anesthesia and allowed to clot. Serum was separated by centrifugation and stored at −80° C. prior to determination of serum hormone levels. Serum luteinizing hormone (LH) and follicle stimulating hormone (FSH) concentrations were determined by the Rat Pituitary Luminex Assay (Millipore, Billerica, Mass.) according to manufacturer's directions. The lower limit of quantitation for this assay was 3.2 pg/mL for LH and 32 pg/mL for FSH. Testosterone was measured by a Testosterone EIA (Alpco Diagnostics, Salem, N.H.) with a LLOQ of 0.08 ng/mL. Serum hormone values below the lower limit of quantitation (BLOQ) were omitted from analysis of group means. Therefore, the reported value for LH and T in the groups with samples BLOQ is higher than the actual value. This method of analysis provided the most conservative estimate of LH and T suppression. Fisher's Least Significant Difference test was used to compare individual dose groups to the intact and ORX vehicle control groups. Significance was defined a priori as a P-value <0.05.

[2] = tested on: treatment naïve prostate cancer patients; test: Study 5: loading dose study (1000 mg BID, 1500 mg BID) in treatment naïve prostate cancer patients; assay type: in vivo; conditions: for Castration (%): patients receiving >14 days; for Subjects that reached castrate levels of serum total testosterone: subjects that had reached Day 28
Protocol: Another study (Study 5) to assess 1000 mg twice per day and 1500 mg twice daily loading doses of Compound IV for 28 days was conducted. Subjects that were castrate on Day 28 received either 1000 mg or 2000 mg Compound IV daily to maintain the castration.
Thirty (30) and 28 subjects were randomized to the 1500 mg BID and 1000 mg BID loading doses, respectively. Among the subjects that had reached Day 28, 90% (18/20) of the subjects in the 1500 mg BID dose group and 94% (17/18) of the subjects in the 1000 mg BID dose group had reached castrate levels of serum total testosterone. During this study, two (2) subjects in the 1500 mg BID dose group experienced a VTE, including one fatal pulmonary embolus (PE) and three (3) subjects in the 1000 mg BID dose group experienced a VTE. See FIG. 26 for an overview of all the clinical studies on Compound IV.

[3] = tested on: healthy older male volunteers; test: Study 4: proof of concept study in healthy older male volunteers (1000, 1500, 2000 mg tablets, 28 days); assay type: in vivo, human; conditions: each dose arm (1000, 1500, 2000 mg)
[4] = Oral bioavailability in dogs; assay type: in vivo; conditions: dog, plasma, depending on the formulation and route of administration
Protocol: Formulations using polyethylene glycol 300 (PEG300) generally produced higher exposures than microemulsions prepared in Tween 80 diluted in deionized water. […] Importantly, in dogs the exposure in the male 30 mg/kg PEG300 oral dose group exceeded the exposure necessary to produce the maximal effect on prostate reduction in the rat model of LH suppression.

[5] = tested on: intact and ORX rats; test: Prostate size in intact and ORX rats, Compound IV versus DES; assay type: in vivo, rat; conditions: rats (FIG. 11)
[6] = tested on: intact male rats; test: Bone preservation despite reduction of LH and testosterone in rats (oral); assay type: in vivo, rat
[7] = tested on: castrated male cynomolgus monkeys; test: Compound IV studies on castrated monkeys, 90 days (Example 22); assay type: in vivo, cynomolgus monkey
[8] = tested on: human platelets; test: In vitro human platelet aggregation assay (thrombin-induced)
[9] = tested on: rats; test: Gastrointestinal effects after oral administration in rats; assay type: in vivo, rat
[10] = target: T1, Human 17β-HSD5 (Homo sapiens, UniProt P42330); test: 17β-HSD5 enzyme activity (14C androstenedione to testosterone, TLC); assay type: biochemical; conditions: purified protein, NADPH (FIG. 3)
T1 construct: GST (inferred from pGEX 4t1 vector; own knowledge) (N); made in house
T1 sequence (P42330 whole entry): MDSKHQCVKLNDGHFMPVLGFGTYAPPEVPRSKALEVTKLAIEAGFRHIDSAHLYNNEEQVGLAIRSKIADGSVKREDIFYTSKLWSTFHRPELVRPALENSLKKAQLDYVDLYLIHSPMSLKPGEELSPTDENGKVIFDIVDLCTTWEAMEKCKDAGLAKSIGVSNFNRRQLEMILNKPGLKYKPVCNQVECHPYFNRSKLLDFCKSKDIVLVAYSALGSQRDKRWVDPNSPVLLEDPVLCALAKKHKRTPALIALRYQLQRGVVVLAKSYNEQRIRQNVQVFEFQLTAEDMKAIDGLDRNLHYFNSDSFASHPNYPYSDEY

[11] = tested on: human males; test: Multiple dose study in human males (100, 300, 600, 1000 mg; days 1-11); assay type: in vivo
[12] = tested on: isolated canine Purkinje fibers; test: Action potential duration in isolated canine Purkinje fibers in vitro; conditions: 10 and 100 μM
Protocol: Compound IV exerts little or no in vitro inhibitory effects (IC50≧300 μM) on the hERG channel.

[13] = tested on: rats; test: Single and repeated oral dose toxicity in rats (up to 28 days); assay type: in vivo, rat
Text: Compound IV was well-tolerated by rats and dogs after single and repeated oral administration (up to 28 days).

SMILES: O=C(c1ccc(O)c(F)c1)N(c1ccc(O)cc1)c1ccc(F)cc1 [Compound IV, 3-fluoro-N-(4-fluorophenyl)-4-hydroxy-N-(4-hydroxyphenyl)benzamide]
- Serum testosterone ([1]; Intact rats, 10 mg/kg per day s.c., 14 days): BLOQ
- Serum testosterone ([1]; Intact rats, 30 mg/kg per day s.c., 14 days): BLOQ
- Serum testosterone ([1]; ORX rats, all dose groups (0.3-30 mg/kg/day)): BLOQ
- Suppression of serum testosterone ([1]; intact male rats, 3, 10 and 300 mg/kg, after 24 h, 72 h and 168 h (FIG. 9)): Rapid and potent suppression
- Doses with significant reduction of FSH levels ([1]; intact rats, 14 days s.c.): ≥ 10 mg/kg/day
- Doses with significant reduction of testosterone levels ([1]; intact rats, 14 days s.c.): ≥ 3 mg/kg per day
- Subjects that experienced a VTE ([2]; 1000 mg BID dose group): 3 subjects
- Castration (%) ([2]; 1000 mg BID, D28): 84.2%
- Castration (%) ([2]; 1000 mg BID, Ever): 90%
- Subjects that reached castrate levels of serum total testosterone ([2]; 1000 mg BID): 94%
- Subjects that experienced a VTE ([2]; 1500 mg BID dose group, including one fatal pulmonary embolus): 2 subjects
- Castration (%) ([2]; 1500 mg BID, D28): 85.7%
- Castration (%) ([2]; 1500 mg BID, Ever): 95.2%
- Subjects that reached castrate levels of serum total testosterone ([2]; 1500 mg BID): 90%
- SHBG increase over baseline [3]: 300-600%
- bioavailability [4]: 3 to 12%
- Reduction of prostate size [5]: as effective as DES
- Bone loss associated with LH suppression [6]: completely prevented the bone loss
- Serum PSA levels in castrate animals ([7]; 1, 10, 100 mg/kg/day oral (groups 4, 5 and 6), within four weeks): significantly suppressed
- Mean prostate weights at necropsy ([7]; after thirteen weeks of treatment): significantly reduces
- Testosterone flare ([7]; castrated animals treated with Compound IV): not observed
- Procoagulatory activity compared with DES [8]: much lower procoagulatory activity than DES
- Gastrointestinal motility and gastric acidity ([9]; oral 30 mg/kg in rats): significant increase
- Peristalsis ([9]; oral 30 to 300 mg/kg in rats): significant increase
- Effect on 17β-HSD5 enzyme activity [10]: partial inhibitory effect
- Change of PSA level ([11]; 10 mg): No changes noted
- Change of PSA level ([11]; 30 mg): No changes noted
- Decrease of PSA level ([11]; 100 mg): 9.2%
- Decrease of free testosterone level ([11]; 100 mg): 17.0%
- APD50 [12]: dose-dependently decreased
- APD90 [12]: dose-dependently decreased
- Tolerability after single and repeated oral administration [13]: well-tolerated
